Where two headings read alike, the source gives them in different places.
What was measured:
[1] = test system: RAW264.7; assay: TRAP staining: RANKL-induced osteoclast differentiation, count of multinucleated TRAP+ cells; type: cell-based
Source text: (§1) Les préostéoblastes primaires ont été isolés à partir de la calotte crânienne de rats Wistar nouveaux-nés par digestion enzymatique comme précédemment décrit [Declercq, H., Van den Vreken, N., De Maeyer, E., Verbeeck, R., Schacht, E., De Ridder, L., and Cornelissen, M. (2004). Isolation, proliferation and differentiation of osteoblastic cells to study cell/biomaterial interactions: comparison of different isolation techniques and source. Biomaterials 25, 757-68.]. Les précurseurs d'ostéoclastes RAW264.7 ont été obtenus auprès de l'ATCC (Manassas, VA, USA). Les préostéoblastes et les RAW264.7 ont été cultivés dans du milieu α-MEM (Invitrogen, Carlsbad, CA, USA) supplémenté avec 10% de SVF décomplémenté et de 100 unités/ml de pénicilline-streptomycine.
Pour la coloration TRAP, 60.000 cellules RAW264.7 ont été ensemencées dans des puits de plaques 12 puits pendant 12 heures puis traitées avec du DMSO/éthanol comme témoin ou de la fisétine (5 µM dans le DMSO) ou du DHA (50µM dans l'éthanol) ou la combinaison des deux (Fisétine 5 µM et DHA 50 µM) pendant 3 heures. Les cellules ont ensuite été induites à se différencier en présence de RANKL (50 ng/ml) avec du DMSO/éthanol ou de la fisétine (5 µM) ou du DHA (50 µM) ou la combinaison des deux (Fisétine 5 µM et DHA 50 µM) durant 4 jours avec un changement de milieux après 2 jours. De la BSA délipidée et sans endotoxines a été utilisée pour solubiliser le DHA avec un rapport 1/5 (BSA/DHA).
La coloration TRAP a été réalisée en utilisant le kit « leukocyte acid phosphatase » (Sigma-Aldrich) selon les recommandations du fournisseur après fixation des cellules. Les cellules TRAP+ multinucléées ont ensuite été comptées.

[2] = test system: ostéocalcine; assay: Quantitative RT-PCR, osteoblast differentiation marker: osteocalcin; type: cell-based, rats Wistar; details: Rattus norvegicus; for activation at 5 µM: AA+βGP+Fisétine 5µM
Source text: as §1
(§2) L'extraction des ARN totaux (cellules et fémurs) a été effectuée en utilisant le réactif TRIzol, la transcription inverse (RT) a été réalisée à l'aide du kit de synthèse d'ADNc Dynamo (Thermo Scientific, Waltham, MA, USA) et l'analyse PCR en temps réel a été réalisée avec le Mastercycler ep Realplex2 (Eppendorf, Hambourg, Allemagne). Toutes les valeurs ont été normalisées par la GAPDH. Les séquences des oligos utilisés sont : ALP F 5'-GGCCAGCTACACCACAACA-3' / ALP R 5'-[…] -3' / OCN F 5'-AGACTCCGGCGCTACCTT -3' / OCN R 5'-[…]-3'/ COL1 F 5'-[…]-3' / COL1 R 5'-[…]-3' / GAPDH F 5'-[…]-3' / GAPDH R 5'-[…]-3'

[3] = test system: collagène de type 1; assay: Quantitative RT-PCR, osteoblast differentiation marker: type 1 collagen; type: cell-based, rats Wistar; details: Rattus norvegicus; for activation at 5 µM: AA+βGP+Fisétine 5µM
Source text: as §1, §2

Compound: O=c1c(O)c(-c2ccc(O)c(O)c2)oc2cc(O)ccc12 [Fisétine, 3,3',4',7-tétrahydroxyflavone]
- inhibition at 5 µM ([1]; Mus musculus, RAW264.7, 96 h, Fisétine 5µM, RANKL 50 ng/ml, 4 days, vs RANKL condition, read-out: inhibition de l'induction par RANKL de la formation de cellules multinucléées TRAP+ (ostéoclastes)): 45%
- ostéoclastes/cm^2 ([1]; condition RANKL+Fisétine (5µM), RANKL alone 735+/-251): 404+/-148 ostéoclastes/cm^2
- activation at 1 µM ([2]; 168 h, AA+βGP+Fisétine 1 µM, J7, read-out: expression de l'ostéocalcine par rapport à la condition « AA+βGP seuls »): 63%
- activation at 5 µM ([2]; 168 h, J7, read-out: expression de l'ostéocalcine par rapport à la condition « AA+βGP seuls »): 177%
- activation at 1 µM ([2]; 336 h, AA+βGP+Fisétine 1µM, J14, read-out: expression de l'ostéocalcine par rapport à la condition « AA+βGP seuls »): 63%
- activation at 5 µM ([2]; 336 h, J14, read-out: expression de l'ostéocalcine par rapport à la condition « AA+βGP seuls »): 131%
- activation at 1 µM ([3]; 168 h, AA+βGP+Fisétine 1 µM, J7, read-out: expression du collagène de type 1 par rapport à la condition « AA+βGP seuls »): 34%
- activation at 5 µM ([3]; 168 h, J7, read-out: expression du collagène de type 1 par rapport à la condition « AA+βGP seuls »): 80%
- activation at 1 µM ([3]; 336 h, AA+βGP+Fisétine 1µM, J14, read-out: expression du collagène de type 1 par rapport à la condition « AA+βGP seuls »): 60%
- activation at 5 µM ([3]; 336 h, J14, read-out: expression du collagène de type 1 par rapport à la condition « AA+βGP seuls »): 138%

From patent EP2999467B1, “USE OF A COMBINATION OF TWO COMPOUNDS FOR THE TREATMENT AND/OR PREVENTION OF BONE DISORDERS” (Institut National de la Recherche Agronomique (INRA), priority 2013, dated 2014)
